The values below come from ChEMBL document CHEMBL3994643, “Synthesis and glucose-stimulate insulin secretion (GSIS) evaluation of vindoline derivatives” (Bioorg Med Chem Lett, 2017).

The test system of this experiment is MIN6. The experiment in a line: Induction of glucose-stimulated insulin secretion in mouse MIN6 cells after 2 hrs by ELISA. To be noted: MIN6, 2 h. Type of experiment: functional, cell-based.
Turning to `CC[C@]12C=CCN3CC[C@@]4(c5ccc(OC)cc5N(C)[C@H]4[C@@](O)(C(=O)OC)[C@@H]1OC(C)=O)[C@@H]32`, the EC50 (in general, the concentration that produces a half-maximal response) amounted to 50.2 µM. With `CCCCO[C@@H]1[C@]2(CC)C=CCN3CC[C@@]4(c5ccc(OC)cc5N(C)[C@H]4[C@@]1(O)C(=O)OC)[C@@H]32`, the EC50 was above 100 µM.

`CCCOC[C@@]1(O)[C@H](OC(C)=O)[C@]2(CC)C=CCN3CC[C@@]4(c5ccc(OC)cc5N(C)[C@@H]14)[C@@H]32` came in with an EC50 of 41.5 µM. For the molecule `CC[C@]12C=CCN3CC[C@@]4(c5ccc(OC)cc5N(C)[C@H]4[C@@](O)(COC)[C@@H]1OC(C)=O)[C@@H]32`, the concentration for a half-maximal effect (EC50) amounted to 41 µM. This EC50 and that of the molecule before are within 1.5-fold of each other. The same measure for `CCC(=O)O[C@@H]1[C@]2(CC)C=CCN3CC[C@@]4(c5ccc(OC)cc5N(C)[C@H]4[C@@]1(O)C(=O)OC)[C@@H]32`: 32.6 µM; for `CCO[C@@H]1[C@]2(CC)C=CCN3CC[C@@]4(c5ccc(OC)cc5N(C)[C@H]4[C@@]1(O)C(=O)OC)[C@@H]32`: 62.2 µM. Under `CCC(=O)NC[C@@]1(O)[C@H](OC(C)=O)[C@]2(CC)C=CCN3CC[C@@]4(c5ccc(OC)cc5N(C)[C@@H]14)[C@@H]32` stands 12.7 µM; under `CC[C@]12C=CCN3CC[C@@]4(c5ccc(OC)cc5N(C)[C@H]4[C@@](O)(CNC(=O)C(C)(C)C)[C@@H]1OC(C)=O)[C@@H]32`, 21 µM. Under `CC[C@]12CCCN3CC[C@@]4(c5ccc(OC)cc5N(C)[C@H]4[C@@](O)(C(=O)OC)[C@@H]1OC(=O)C(C)C)[C@@H]32` stands 14.2 µM; under `CC[C@]12C=CCN3CC[C@@]4(c5ccc(OC)cc5N(C)[C@H]4[C@@](O)(C(=O)OC)[C@@H]1O)[C@@H]32`, above 100 µM; under `CCCCOC[C@@]1(O)[C@H](OC(C)=O)[C@]2(CC)C=CCN3CC[C@@]4(c5ccc(OC)cc5N(C)[C@@H]14)[C@@H]32`, above 100 µM.

With `CCCO[C@@H]1[C@]2(CC)C=CCN3CC[C@@]4(c5ccc(OC)cc5N(C)[C@H]4[C@@]1(O)C(=O)OC)[C@@H]32`, it took 64.3 µM to reach a half-maximal effect (EC50). That is a double-digit micromolar value. Under `CC[C@]12C=CCN3CC[C@@]4(c5ccc(OC)cc5N(C)[C@H]4[C@@](O)(C(=O)OC)[C@@H]1OC(=O)c1ccccc1)[C@@H]32` stands 62.2 µM; under `CC[C@]12C=CCN3CC[C@@]4(c5ccc(OC)cc5N(C)[C@H]4[C@@](O)(COC(=O)C(C)C)[C@@H]1OC(C)=O)[C@@H]32`, above 100 µM. Under `CC[C@]12C=CCN3CC[C@@]4(c5ccc(OC)cc5N(C)[C@H]4[C@@](O)(C(=O)OC)[C@@H]1OC(=O)C(C)C)[C@@H]32` stands 10.4 µM; under `CCOC[C@@]1(O)[C@H](OC(C)=O)[C@]2(CC)C=CCN3CC[C@@]4(c5ccc(OC)cc5N(C)[C@@H]14)[C@@H]32`, 11 µM; under `CC[C@]12C=CCN3CC[C@@]4(c5ccc(OC)cc5N(C)[C@H]4[C@@](O)(C(=O)OC)[C@@H]1OC(=O)C1CCCCC1)[C@@H]32`, 80.5 µM. `CC[C@]12C=CCN3CC[C@@]4(c5ccc(OC)cc5N(C)[C@H]4[C@@](O)(C(=O)OC)[C@@H]1OC)[C@@H]32` had an EC50 above 100 µM.

Turning to `CCC(=O)NC[C@@]1(O)[C@H](OC(=O)C(C)C)[C@]2(CC)C=CCN3CC[C@@]4(c5ccc(OC)cc5N(C)[C@@H]14)[C@@H]32`, the EC50 was found to be 18.5 µM. That is a double-digit micromolar value. The same measure for `CC[C@]12C=CCN3CC[C@@]4(c5ccc(OC)cc5N(C)[C@H]4[C@@](O)(CNC(C)=O)[C@@H]1OC(C)=O)[C@@H]32`: 19.3 µM; for `CCC(=O)O[C@@H]1[C@]2(CC)CCCN3CC[C@@]4(c5ccc(OC)cc5N(C)[C@H]4[C@@]1(O)C(=O)OC)[C@@H]32`: 38.5 µM; for `CCC(=O)OC[C@@]1(O)[C@H](OC(C)=O)[C@]2(CC)C=CCN3CC[C@@]4(c5ccc(OC)cc5N(C)[C@@H]14)[C@@H]32`: 51 µM. Under `CCOC[C@@]1(O)[C@H](OC(=O)C(C)C)[C@]2(CC)C=CCN3CC[C@@]4(c5ccc(OC)cc5N(C)[C@@H]14)[C@@H]32` stands 14.2 µM.
